Assay results from patent publication US20240327418A1, “MULTI-TARGET INHIBITOR TARGETING HDAC AND NAD SYNTHESIS AND USE OF MULTI-TARGET INHIBITOR” (OCEAN UNIVERSITY OF CHINA, priority 2021, published 2024).

What was measured:
NAMPT = NAMPT (Homo sapiens (Human), UniProt P43490); experiment: Inhibitory activity on NAMPT; format: biochemical; details: for IC50: mean of three independent experiments
[1] = system: acute myelogenous leukemia cells MV4-11; experiment: GI50 and LC50 by NCI method, MV4-11; format: cell-based; details: Homo sapiens, 48 hours, Cell Titer-Blue
Method: (§1) The median growth inhibitory concentration (GI50) and median lethal concentration (LC50) were determined by NCI method. Leukemia cell strains MV4-11, HL60, PL21, KASUMI-1, MONO-MAC-1 and NB-4 were cultured in an Iscove's Modified Dulbecco Medium (IMDM) containing 10% fetal bovine serum, were inoculated into a 96-well cell culture plate at a density of 10,000 cells/100 μL and cultured overnight. 6 wells were selected as Tz wells, 0.125 mg/mL Cell Titer-Blue dye was added, and the cells were cultured for 4 hours and then the fluorescence intensity at […] (excitation wavelength/emission wavelength) was read. Compounds of different concentrations were added to the remaining wells, and a 100% control group was set. After 48 hours of cultivation, 0.125 mg/mL Cell Titer-Blue dye was added and the fluorescence intensity at […] was read after 4 hours. The fluorescence intensity of the dosing group was represented by Ti, the fluorescence intensity of the 100% control group was represented by C, and the fluorescence intensity before dosing was represented by Tz.
(§2) If Ti≥Tz, the formula [(Ti−Tz)/(C−Tz)]×100 was used.
(§3) If Ti<Tz, the formula [(Ti−Tz)/Tz]×100 was used.
(§4) The GI50 and LC50 values of some compounds on leukemia cell strains MV4-11, HL60, PL21, KASUMI-1, MONO-MAC-1 and NB-4 are shown in FIG. 1, Table 3, FIG. 2, and Table 4.

[2] = system: acute myelogenous leukemia cells HL60; experiment: GI50 and LC50 by NCI method, HL60; format: cell-based; details: for CC50 / GI50: Homo sapiens, HL-60, 48 hours, Cell Titer-Blue
Method: as §1, §2, §3, §4

leukemia cell line PL21 = experiment: GI50 and LC50 by NCI method, PL21; format: cell-based; details: PL-21; 48 hours, Cell Titer-Blue
Method: as §1, §2, §3, §4

[3] = system: leukemia cell line KASUMI-1; experiment: GI50 and LC50 by NCI method, KASUMI-1; format: cell-based; details: Homo sapiens, 48 hours, Cell Titer-Blue
Method: as §1, §2, §3, §4

[4] = system: leukemia cell line MONO-MAC-1; experiment: GI50 and LC50 by NCI method, MONO-MAC-1; format: cell-based; details: 48 hours, Cell Titer-Blue
Method: as §1, §2, §3, §4

leukemia cell line NB-4 = experiment: GI50 and LC50 by NCI method, NB-4; format: cell-based; details: 48 hours, Cell Titer-Blue; for GI50: read-out: NB4 GI50
Method: as §1, §2, §3, §4

HDAC1 = HDAC1 (Homo sapiens (Human), UniProt Q13547); experiment: Inhibitory activity on HDAC1 (fluorescence enzyme assay); details: read-out: IC50 HDAC1; mean of three independent experiments
HDAC2 = HDAC2 (Homo sapiens (Human), UniProt Q92769); experiment: Inhibitory activity on HDAC2 (fluorescence enzyme assay); details: read-out: IC50 HDAC2; mean of three independent experiments
[5] = Pharmacokinetic properties in mice; format: in vivo; details: for AUC(0-t) / Tmax: mouse, plasma; for F: po 20 mg/kg vs iv 5 mg/kg
HDAC3 = HDAC3 (Homo sapiens (Human), UniProt O15379); experiment: Inhibitory activity on HDAC3 (fluorescence enzyme assay); details: read-out: IC50 HDAC3; mean of three independent experiments
MV4-11 tumor = experiment: In vivo anti-leukemia activity, MV4-11 tumor bearing model; details: MV4-11 tumor bearing nude mice; 4 mg/kg/d, day 23; panobinostat intraperitoneal

Sequence of HDAC2 (Q92769 whole entry, species assumed): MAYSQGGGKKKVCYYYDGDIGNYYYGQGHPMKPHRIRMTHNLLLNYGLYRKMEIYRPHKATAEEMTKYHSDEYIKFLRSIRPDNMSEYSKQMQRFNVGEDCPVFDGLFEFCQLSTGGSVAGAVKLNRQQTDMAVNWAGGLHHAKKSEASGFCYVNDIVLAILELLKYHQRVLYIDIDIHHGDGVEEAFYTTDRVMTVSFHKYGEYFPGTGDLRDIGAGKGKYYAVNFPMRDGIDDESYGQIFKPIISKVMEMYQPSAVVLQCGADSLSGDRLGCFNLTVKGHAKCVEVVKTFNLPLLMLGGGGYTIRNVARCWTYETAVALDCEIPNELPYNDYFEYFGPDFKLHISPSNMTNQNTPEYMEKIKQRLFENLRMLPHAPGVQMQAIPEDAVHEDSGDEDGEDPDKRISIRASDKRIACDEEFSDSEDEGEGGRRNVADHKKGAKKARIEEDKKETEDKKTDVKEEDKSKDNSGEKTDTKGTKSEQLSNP
Sequence of NAMPT (P43490 whole entry, species assumed): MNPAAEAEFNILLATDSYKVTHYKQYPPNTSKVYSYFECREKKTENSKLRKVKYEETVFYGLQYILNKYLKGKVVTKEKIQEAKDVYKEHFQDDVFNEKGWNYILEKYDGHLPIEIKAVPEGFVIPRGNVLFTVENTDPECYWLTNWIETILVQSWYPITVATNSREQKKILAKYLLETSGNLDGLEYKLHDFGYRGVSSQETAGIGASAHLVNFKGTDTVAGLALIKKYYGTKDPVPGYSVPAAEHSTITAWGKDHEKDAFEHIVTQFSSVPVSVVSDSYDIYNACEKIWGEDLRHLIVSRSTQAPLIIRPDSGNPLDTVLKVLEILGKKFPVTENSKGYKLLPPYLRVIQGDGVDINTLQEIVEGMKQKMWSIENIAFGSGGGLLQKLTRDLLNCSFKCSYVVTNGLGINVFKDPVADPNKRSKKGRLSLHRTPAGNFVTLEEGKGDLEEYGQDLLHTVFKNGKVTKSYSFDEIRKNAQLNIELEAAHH
Sequence of HDAC1 (Q13547 whole entry, species assumed): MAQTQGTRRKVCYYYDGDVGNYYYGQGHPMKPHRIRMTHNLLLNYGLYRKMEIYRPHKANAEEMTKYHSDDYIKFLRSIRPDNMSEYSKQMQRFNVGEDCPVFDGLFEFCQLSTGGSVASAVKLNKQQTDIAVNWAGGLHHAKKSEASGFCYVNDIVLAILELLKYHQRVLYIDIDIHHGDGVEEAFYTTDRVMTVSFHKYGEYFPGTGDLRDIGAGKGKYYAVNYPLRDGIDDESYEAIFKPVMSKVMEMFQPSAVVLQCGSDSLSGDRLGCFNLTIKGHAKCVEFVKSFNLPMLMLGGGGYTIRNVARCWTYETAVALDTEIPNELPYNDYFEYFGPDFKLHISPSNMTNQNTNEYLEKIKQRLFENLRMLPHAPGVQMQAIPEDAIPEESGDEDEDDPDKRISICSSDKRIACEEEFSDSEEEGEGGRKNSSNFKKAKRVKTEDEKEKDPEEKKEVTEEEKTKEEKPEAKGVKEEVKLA
Sequence of HDAC3 (O15379 whole entry, species assumed): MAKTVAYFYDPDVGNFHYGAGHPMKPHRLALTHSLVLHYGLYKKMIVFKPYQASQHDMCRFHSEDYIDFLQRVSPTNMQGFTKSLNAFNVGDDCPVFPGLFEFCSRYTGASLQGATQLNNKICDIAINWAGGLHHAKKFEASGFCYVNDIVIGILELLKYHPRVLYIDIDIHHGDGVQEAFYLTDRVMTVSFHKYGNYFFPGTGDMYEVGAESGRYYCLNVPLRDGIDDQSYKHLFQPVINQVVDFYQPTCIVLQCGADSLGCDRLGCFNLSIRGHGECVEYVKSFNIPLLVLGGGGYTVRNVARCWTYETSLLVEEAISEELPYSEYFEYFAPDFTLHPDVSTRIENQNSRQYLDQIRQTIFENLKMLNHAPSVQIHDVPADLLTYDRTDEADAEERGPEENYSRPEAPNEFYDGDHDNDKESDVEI
Sequence of HDAC3 (Q9Y618 395-489 partner, species assumed): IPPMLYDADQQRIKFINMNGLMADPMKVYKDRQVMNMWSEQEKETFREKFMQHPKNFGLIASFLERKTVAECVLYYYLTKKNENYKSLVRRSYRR

| Compound | IC50 (HDAC2) [nM] | IC50 (HDAC3) [nM] | GI50 [1] [nM] | CC50 [2] [nM] | GI50 [2] [nM] | IC50 (HDAC1) [nM] | LC50 (median lethal concentration) [1] [nM] | other results |
| --- | --- | --- | --- | --- | --- | --- | --- | --- |
| CCCNNC(=O)c1ccc(CNC(=O)/C=C/c2ccccc2)cc1 [Comparative example 1 LP411/3b, reference compound] | 95.5 |  | 66 | > 10000 | 121 | 11.8 |  | IC50 (NAMPT): > 20000 nM; GI50 (leukemia cell line PL21): 523 nM; GI50 [3]: 17.8 nM; CC50 [4]: > 10000 nM; GI50 [4]: 16.3 nM; GI50 (leukemia cell line NB-4): 19.5 nM |
| CCCNNC(=O)/C=C/c1ccc(CNCCc2c(C)[nH]c3ccccc23)cc1 [Comparative example 2 LP97/13a, reference compound] |  |  |  |  |  |  |  | IC50 (NAMPT): > 20000 nM; AUC(0-t) ([5]; po 20 mg/kg single dose): 242 ng·h/mL; Tmax ([5]; po 20 mg/kg single dose): 30 min; Cmax ([5]; po 20 mg/kg single dose): 45.1 ng/mL; F [5]: 19.8% |
| O=C(/C=C/c1cccnc1)NCCCCC1CCN(C(=O)c2ccccc2)CC1 [FK866, reference compound] |  |  | 7.95 | > 10000 | 12.1 |  |  |  |
| CCCNNC(=O)CCNC(=O)/C=C/c1cccnc1 [LEE1, (E)-N-(3-oxo-3-(2-propylhydrazino)propyl)-3-(pyridin-3-yl) acrylamide] | 13600 | 1560 |  |  |  | > 10000 |  |  |
| CCCNNC(=O)CCCCCCCNC(=O)/C=C/c1cccnc1 [LEE4, (E)-N-(8-oxo-8-(2-propylhydrazino)octyl)-3-(pyridin-3-yl) acrylamide] | 506 | 76.7 |  |  |  | 241 |  |  |
| CCCNNC(=O)CCCCCCNC(=O)c1cc2cnccc2[nH]1 [LEE7, N-(7-oxo-7-(2-propylhydrazino)heptyl)-3H-pyrrolo[3,2-c]pyridin-2-carboxamide] |  |  | 64.7 | 724 | 158 |  | 164 | LC50 values in p53-null cell strain HL60 (in words) [2]: nanomolar level |
| Nc1ccccc1NC(=O)CCCCCCCNC(=O)/C=C/c1cccnc1 [LEE8, (E)-N-(2-aminophenyl)-8-(3-(pyridin-3-yl)acrylamido) octanamide] | 321 | 26.4 | 31.2 |  |  | 147 | 456 |  |
| Nc1ccccc1NC(=O)CCCCCCCn1cc(-c2cccnc2)nn1 [LEE11, N-(2-aminophenyl)-8-(4-(pyridin-3-yl)-1H-1,2,3-triazole-1-yl) octanamide] | 188 | 8.78 |  |  |  |  |  |  |
| CCCNNC(=O)c1ccc(CNC(=O)/C=C/c2ccccn2)cc1 [LEE13, (E)-N-(4-(2-propylhydrazino-1-carbonyl)benzyl)-3-(pyridin-2-yl) acrylamide] | 49.2 | 1.82 | 15 | > 10000 | 128 | 13.2 | 125 |  |
| CCCNNC(=O)c1ccc(CNC(=O)/C=C/c2ccncc2)cc1 [LEE14, (E)-N-(4-(2-propylhydrazino-1-carbonyl)benzyl)-3-(pyridin-4-yl)acrylamide] | 88.5 | 2.74 | 14.3 | 6060 | 63.1 | 12.7 | 83.6 | LC50 values in p53-null cell strain HL60 (in words) [2]: nanomolar level |
| CCCNNC(=O)c1ccc(CNC(=O)c2cc3ccccc3[nH]2)cc1 [LEE15, N-(4-(2-propylhydrazino-1-carbonyl)benzyl)-1H-indole-2-carboxyamide] | 15.1 | 0.383 | 37.2 | > 10000 | 69.5 | 3.52 | 58.1 | GI50 (leukemia cell line PL21): 65.5 nM; LC50 (median lethal concentration) (leukemia cell line PL21): > 10000 nM; GI50 [3]: 17.5 nM; LC50 [3]: 8410 nM; CC50 [4]: > 10000 nM; GI50 [4]: 17.9 nM; GI50 (leukemia cell line NB-4): 31.9 nM; LC50 (median lethal concentration) (leukemia cell line NB-4; read-out: NB4 LC50): > 10000 nM; Relative tumor proliferation rate (T/C %) (MV4-11 tumor): 22.4%; Tumor inhibitory rate (TGI %) (MV4-11 tumor): 81.3%; AUC(0-t) ([5]; po 20 mg/kg single dose): 128000 ng·h/mL; Tmax ([5]; po 20 mg/kg single dose): 15 min; Cmax ([5]; po 20 mg/kg single dose): 38800 ng/mL; t½ ([5]; po 20 mg/kg single dose): 155 min; F [5]: 112% |
| CCCNNC(=O)c1ccc(CNC(=O)c2cc3cnccc3s2)cc1 [LEE19, N-(4-(2-propylhydrazin-1-carbonyl)benzyl)thiopheno[3,2-c]pyridin-2-carboxamide] | 60 | 1.2 | 54 | > 10000 | 77.3 | 10.1 | 98.5 |  |
| CCCNNC(=O)c1ccc(CNC(=O)c2cc3cnccc3o2)cc1 [LEE20, N-(4-(2-propylhydrazino-1-carbonyl)benzyl)furan[3,2-c]pyridine-2-carboxyamide] | 38.4 | 0.52 | 50.4 | > 10000 |  | 10.3 | 109 |  |
| CCCNNC(=O)c1ccc(CNC(=O)c2cc3ccncc3[nH]2)cc1 [LEE21, N-(4-(2-propylhydrazino-1-carbonyl)benzyl)-1H-pyrrolo[2,3-c]pyridine-2-carboxamide] | 51.5 | 2.42 | 25.4 | > 10000 | 81.5 | 8.17 | 58 |  |
| CCCNNC(=O)c1ccc(CNC(=O)CCCCCCCNC(=O)/C=C/c2cccnc2)cc1 [LEE37, (E)-N-(4-(2-propylhydrazino-1-carbonyl)benzyl)-8-(3-(pyridine-3-yl)acrylamido) octanamide] | 84.1 | 1.98 |  |  |  | 17.8 |  |  |
| CCCNNC(=O)c1ccc(NC(=O)CCCCCCNC(=O)/C=C/c2cccnc2)cc1 [LEE40, (E)-N-(4-(2-propylhydrazino-1-carbonyl)phenyl)-7-(3-(pyridine-3-yl)acrylamido) heptamide] | 123 | 12.4 | 15.7 |  |  |  |  |  |
| COC(=O)c1ccc(CNC(=O)/C=C/c2cccnc2)cc1 [LEE43, methyl (E)-4-((3-(pyridine-3-yl)acrylamido)methyl) benzoate] |  |  |  |  |  |  |  | inhibitory activity against NAMPT (in words) (NAMPT): micromolar level; IC50 (NAMPT): 4680 nM |
| COC(=O)c1ccc(CNC(=O)c2cc3cnccc3[nH]2)cc1 [LEE44, methyl 4-((1H-pyrrolo[3,2-c]pyridine-2-carbonylamide)methyl) benzoate] |  |  |  |  |  |  |  | inhibitory activity against NAMPT (in words) (NAMPT): micromolar level; IC50 (NAMPT): 6710 nM |

More lines, main results first:

| IC50 (HDAC2) [nM] | IC50 (HDAC3) [nM] | Compound | GI50 [1] [nM] | CC50 [2] [nM] | GI50 [2] [nM] | IC50 (HDAC1) [nM] | LC50 (median lethal concentration) [1] [nM] | other results |
| --- | --- | --- | --- | --- | --- | --- | --- | --- |
| 2000 | 112 | CCCNNC(=O)CCCCNC(=O)/C=C/c1cccnc1 [LEE2, (E)-N-(5-oxo-5-(2-propylhydrazino)pentyl)-3-(pyridin-3-yl) acrylamide] |  |  |  | 689 |  |  |
| 339 |  | CCCNNC(=O)CCCCCCNC(=O)/C=C/c1cccnc1 [LEE3, (E)-N-(7-oxo-7-(2-propylhydrazino)heptyl)-3-(pyridin-3-yl) acrylamide] |  |  |  |  |  |  |
| 398 | 110 | CCCNNC(=O)CCCCCCNC(=O)NCc1cccnc1 [LEE5, 1-(7-oxo-7-(2-propylhydrazino)heptyl)-3-(pyridin-3-ylmethyl) urea] |  |  |  | 444 |  |  |
| 539 | 97.4 | CCCNNC(=O)c1ccc(NC(=O)CCCCCCCNC(=O)/C=C/c2cccnc2)cc1 [LEE38, (E)-N-(4-(2-propylhydrazino-1-carbonyl)phenyl)-8-(3-(pyridine-3-yl)acrylamido) amide] |  |  |  | 620 |  |  |
| 1180 | 84.3 | CCCNNC(=O)c1ccc(CNC(=O)CCCCCCNC(=O)/C=C/c2cccnc2)cc1 [LEE39, (E)-N-(4-(2-propylhydrazino-1-carbonyl)benzyl)-7-(3-(pyridine-3-yl)acrylamido) heptanamide] |  |  |  | 501 |  |  |
| 78.7 | 1.08 | CCCNNC(=O)c1ccc(NC(=O)CCCCCCCn2cc(-c3cccnc3)nn2)cc1 [LEE41, N-(4-(2-propylhydrazino-1-carbonyl)phenyl)-8-(4-(pyridin-3-yl)-1H-1,2,3-triazole-1-yl) octanamide] |  |  |  | 18 |  |  |
